Test results taken from patent US20260137642A1 (CANCER PREVENTION PHARMACEUTICALS, INC., priority 2021, published 2026).

What was measured:
[1] = Phase I/II trial in new onset T1D: adverse events judged possibly or probably related to drug; format: in vivo, human; conditions: for Adverse events possibly or probably related to drug: Other infectious/immune, Pump site infection / Adverse events possibly or probably related to drug: Other, Hypoglycemia / Adverse events possibly or probably related to drug: Other, Urticaria/anaphylaxis / Adverse events possibly or probably related to drug: URI / Adverse events possibly or probably related to drug: Vomiting / Adverse events possibly or probably related to drug: Hematologic, Grade 1 Neutropenia / Adverse events possibly or probably related to drug: Abdominal Pain / Adverse events possibly or probably related to drug: Congestion / Adverse events possibly or probably related to drug: Cough / Adverse events possibly or probably related to drug: Diarrhea / Adverse events possibly or probably related to drug: Dizziness / Adverse events possibly or probably related to drug: Gastrointestinal (Total) / Adverse events possibly or probably related to drug: Hematologic, Anemia / Adverse events possibly or probably related to drug: Hot flashes associated with viral illness / Adverse events possibly or probably related to drug: Nausea / Adverse events possibly or probably related to drug: Nausea with IV placement / Adverse events possibly or probably related to drug: Neurologic, Headache / Adverse events possibly or probably related to drug: Other Viral Illness: daily oral; for Adverse events possibly or probably related to drug: Hematologic, Grade 1 Neutropenia: neutrophil count < lower limit of normal but above 1500/mm^3
Text: The primary efficacy measure was changes in pro-insulin to C-peptide ratios as a marker of β cell ER stress. The secondary objectives of the study were to elucidate the relationship between primary dose and markers of endoplasmic reticulum (ER) stress, polyamine concentrations, glycemic, and immunologic outcomes in persons with new onset T1D, and to characterize the dietary polyamine intake and urinary polyamine excretion of persons with recent-onset T1D. Secondary efficacy measures included other biomarkers of β cell stress, stimulated C-peptide values, and changes in T-cell subsets. This study was double-blind, placebo-controlled, 2:1 random assigned, phase I/II clinic trial for individuals with type 1 diabetes. The blinded dose-ranging study enrolled persons with new onset T1D with documented continued residual C-peptide production. […] After a 3 month wash-out period, the durability of effect was assessed. […] Males and females 12-40 years of age with a clinical diagnosis of T1D within 2-8 months of the time of visit 2; 2. […] Positive for any one of the following diabetes-related autoantibodies (mIAA, GADA, IA-2A, or ZnT8A); 4. Treatment naïve of any immunomodulatory agent; 5. […] Presence of any psychiatric disorder that will affect ability to participate in study, including psychiatric impairment or current use of anti-psychotic medication; 3. […] Chronic illness known to affect glucose metabolism (e.g. Cushing syndrome, polycystic ovarian disorder, cystic fibrosis) or taking medications that affect glucose metabolism (e.g. steroids, metformin); 5. Inability to swallow pills; 6. Hematologic abnormalities at screening (anemia, leukopenia (particularly neutropenia), or thrombocytopenia); 7. […] Female participants of child-bearing age must not be pregnant and agree to use an effective form of birth control or be abstinent during the study period; 9. BMI >95% for age and sex. […] The enrollment cohorts were as follows: […] [table] […] Possible drug-related expected AEs included mild-moderate nausea/vomiting/abdominal pain and diarrhea, moderate headache, upper respiratory infections, a pump site infection, and mild anemia. […] Adverse events judges by masked study investigators as possibly or probably related to drug are showing in Table 3.

[2] = system: APC-dependent intestinal tumorigenesis; conditions: mice; cited from earlier work
β cell function = conditions: mouse models including the NOD mouse; cited from earlier work
ODC enzyme activity = molecular target: T1, ODC enzyme activity (Homo sapiens, UniProt P11926); conditions: oral, daily, humans; cited from earlier work
T1 construct: from tissue; host or cells: human epithelial tissues (in vivo, oral dosing); finding cited from the literature
T1 sequence (P11926 1-461): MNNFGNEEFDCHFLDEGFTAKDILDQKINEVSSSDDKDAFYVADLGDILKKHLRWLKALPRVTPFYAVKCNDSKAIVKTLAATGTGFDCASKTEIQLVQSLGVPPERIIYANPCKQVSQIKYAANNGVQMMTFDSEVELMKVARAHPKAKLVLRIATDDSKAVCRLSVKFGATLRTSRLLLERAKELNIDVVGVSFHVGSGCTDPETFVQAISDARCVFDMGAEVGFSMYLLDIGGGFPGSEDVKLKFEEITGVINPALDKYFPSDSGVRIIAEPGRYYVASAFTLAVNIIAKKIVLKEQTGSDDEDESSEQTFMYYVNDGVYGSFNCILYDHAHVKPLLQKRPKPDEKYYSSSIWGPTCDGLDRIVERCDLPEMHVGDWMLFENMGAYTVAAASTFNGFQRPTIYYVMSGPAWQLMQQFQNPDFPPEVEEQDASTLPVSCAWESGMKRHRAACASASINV

Question: Which “Adverse events possibly or probably related to drug: Other infectious/immune, Pump site infection” value ([1]; 500 mg/m^2 (n = 6)) does the source give for `NCCCC(N)(C(=O)O)C(F)F` (stereo not drawn) [eflornithine, 2,5-diamino-2-(difluoromethyl) pentanoic acid] here?
Answer: 0

Question: What about the “Adverse events possibly or probably related to drug: Other, Hypoglycemia” value ([1]; 500 mg/m^2 (n = 6)) of the same molecule?
Answer: 1

Question: And the “Adverse events possibly or probably related to drug: Other, Urticaria/anaphylaxis” value ([1]; 500 mg/m^2 (n = 6))?
Answer: 0

Question: What about the “Adverse events possibly or probably related to drug: URI” value ([1]; 500 mg/m^2 (n = 6)) of the same molecule?
Answer: 0

Question: What about the “Adverse events possibly or probably related to drug: Vomiting” value ([1]; 500 mg/m^2 (n = 6)) of the same molecule?
Answer: 0

Question: And the “Adverse events possibly or probably related to drug: Hematologic, Grade 1 Neutropenia” value ([1]; 500 mg/m^2 (n = 6))?
Answer: 0

Question: What about the “Adverse events possibly or probably related to drug: Abdominal Pain” value ([1]; 750 mg/m^2 (n = 7)) of the same molecule?
Answer: 2

Question: And the “Adverse events possibly or probably related to drug: Congestion” value ([1]; 750 mg/m^2 (n = 7))?
Answer: 2

Question: What about the “Adverse events possibly or probably related to drug: Cough” value ([1]; 750 mg/m^2 (n = 7)) of the same molecule?
Answer: 0

Question: And the “Adverse events possibly or probably related to drug: Diarrhea” value ([1]; 750 mg/m^2 (n = 7))?
Answer: 0

Question: What about the “Adverse events possibly or probably related to drug: Dizziness” value ([1]; 750 mg/m^2 (n = 7)) of the same molecule?
Answer: 2

Question: And the “Adverse events possibly or probably related to drug: Gastrointestinal (Total)” value ([1]; 750 mg/m^2 (n = 7))?
Answer: 5

Question: What about the “Adverse events possibly or probably related to drug: Hematologic, Anemia” value ([1]; 750 mg/m^2 (n = 7)) of the same molecule?
Answer: 1

Question: What about the “Adverse events possibly or probably related to drug: Hot flashes associated with viral illness” value ([1]; 750 mg/m^2 (n = 7)) of the same molecule?
Answer: 0

Question: And the “Adverse events possibly or probably related to drug: Nausea” value ([1]; 750 mg/m^2 (n = 7))?
Answer: 3

Question: And the “Adverse events possibly or probably related to drug: Nausea with IV placement” value ([1]; 750 mg/m^2 (n = 7))?
Answer: 1

Question: And the “Adverse events possibly or probably related to drug: Neurologic, Headache” value ([1]; 750 mg/m^2 (n = 7))?
Answer: 0

Question: And the “Adverse events possibly or probably related to drug: Other Viral Illness” value ([1]; 750 mg/m^2 (n = 7))?
Answer: 1

Question: And the “Adverse events possibly or probably related to drug: Other infectious/immune, Pump site infection” value ([1]; 750 mg/m^2 (n = 7))?
Answer: 0

Question: And the “Adverse events possibly or probably related to drug: Other, Hypoglycemia” value ([1]; 750 mg/m^2 (n = 7))?
Answer: 0

Question: And the “Adverse events possibly or probably related to drug: Other, Urticaria/anaphylaxis” value ([1]; 750 mg/m^2 (n = 7))?
Answer: 1

Question: What about the “Adverse events possibly or probably related to drug: URI” value ([1]; 750 mg/m^2 (n = 7)) of the same molecule?
Answer: 2

Question: And the “Adverse events possibly or probably related to drug: Vomiting” value ([1]; 750 mg/m^2 (n = 7))?
Answer: 0

Question: What about the “Adverse events possibly or probably related to drug: Hematologic, Grade 1 Neutropenia” value ([1]; 750 mg/m^2 (n = 7)) of the same molecule?
Answer: 0

Question: And the “Adverse events possibly or probably related to drug: Abdominal Pain” value ([1]; 1000 mg/m^2 (n = 6))?
Answer: 1

Question: What about the “Adverse events possibly or probably related to drug: Congestion” value ([1]; 1000 mg/m^2 (n = 6)) of the same molecule?
Answer: 1

Question: And the “Adverse events possibly or probably related to drug: Cough” value ([1]; 1000 mg/m^2 (n = 6))?
Answer: 1

Question: What about the “Adverse events possibly or probably related to drug: Diarrhea” value ([1]; 1000 mg/m^2 (n = 6)) of the same molecule?
Answer: 0

Question: What about the “Adverse events possibly or probably related to drug: Dizziness” value ([1]; 1000 mg/m^2 (n = 6)) of the same molecule?
Answer: 0

Question: What about the “Adverse events possibly or probably related to drug: Gastrointestinal (Total)” value ([1]; 1000 mg/m^2 (n = 6)) of the same molecule?
Answer: 2

Question: And the “Adverse events possibly or probably related to drug: Hematologic, Anemia” value ([1]; 1000 mg/m^2 (n = 6))?
Answer: 2

Question: What about the “Adverse events possibly or probably related to drug: Hot flashes associated with viral illness” value ([1]; 1000 mg/m^2 (n = 6)) of the same molecule?
Answer: 1

Question: What about the “Adverse events possibly or probably related to drug: Nausea” value ([1]; 1000 mg/m^2 (n = 6)) of the same molecule?
Answer: 1

Question: What about the “Adverse events possibly or probably related to drug: Nausea with IV placement” value ([1]; 1000 mg/m^2 (n = 6)) of the same molecule?
Answer: 0

Question: And the “Adverse events possibly or probably related to drug: Neurologic, Headache” value ([1]; 1000 mg/m^2 (n = 6))?
Answer: 2

Question: And the “Adverse events possibly or probably related to drug: Other Viral Illness” value ([1]; 1000 mg/m^2 (n = 6))?
Answer: 0

Question: And the “Adverse events possibly or probably related to drug: Other infectious/immune, Pump site infection” value ([1]; 1000 mg/m^2 (n = 6))?
Answer: 1

Question: What about the “Adverse events possibly or probably related to drug: Other, Hypoglycemia” value ([1]; 1000 mg/m^2 (n = 6)) of the same molecule?
Answer: 0

Question: And the “Adverse events possibly or probably related to drug: Other, Urticaria/anaphylaxis” value ([1]; 1000 mg/m^2 (n = 6))?
Answer: 0

Question: And the “Adverse events possibly or probably related to drug: URI” value ([1]; 1000 mg/m^2 (n = 6))?
Answer: 2

Question: What about the “Adverse events possibly or probably related to drug: Vomiting” value ([1]; 1000 mg/m^2 (n = 6)) of the same molecule?
Answer: 0

Question: What about the “Adverse events possibly or probably related to drug: Hematologic, Grade 1 Neutropenia” value ([1]; 1000 mg/m^2 (n = 6)) of the same molecule?
Answer: 0

Question: And the Tolerability ([1]; 3-month course of oral eflornithine, children and adults with recent-onset T1D)?
Answer: well tolerated with a favorable AE profile

Question: And the “Severity of adverse events noted” value ([1]; daily oral doses of 125, 250, 500, 750, and 1000 mg/m^2, drug or placebo)?
Answer: Mild and moderate AEs

Question: And the Unexpected drug-related effects ([1]; individuals on active drug, daily oral doses of 125, 250, 500, 750, and 1000 mg/m^2)?
Answer: No unexpected effects judged related to drug

Question: What about the APC-dependent intestinal tumorigenesis [2] of the same molecule?
Answer: decrease APC-dependent intestinal tumorigenesis

Question: What about the “β cell function and diabetes onset” value (β cell function) of the same molecule?
Answer: preserves β cell function and delays diabetes onset

Question: What about the “ODC enzyme activity and polyamine contents in epithelial tissues” value (ODC enzyme activity) of the same molecule?
Answer: inhibits ODC enzyme activity and polyamine contents
